Experiment [1] addresses isolated recombinant JAK1 kinase domain (Homo sapiens (Human), UniProt P23458). Put plainly: JAK1 enzyme assay (Caliper LabChip, Ki). Type of experiment: biochemical. The note with it: read-out: JAK1 Ki. The gist of the method: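 Ki derived via Morrison tight-binding model, ATP-competitive correction applied. Read-out: product/total ratio of a 5-carboxyfluorescein-tagged JAK3 peptide separated on Caliper LabChip after phosphorylation by isolated human JAK1 kinase domain (22 °C, 30 min; EDTA quench, 50 mM final).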

Experiment [2] relates to JAK1-dependent STAT6 phosphorylation downstream of IL-13 stimulation in BEAS-2B human bronchial epithelial cells. The experiment in a line: JAK1 pathway assay in BEAS-2B cells (IL-13-pSTAT6, MSD). Format: cell-based. The note with it: Homo sapiens, BEAS-2B, BEAS-2B cells, IL-13 stimulation; read-out: IL-13 p-STAT6 BEAS-2B IC50.
Experiment [3] has as its target isolated recombinant JAK2 kinase domain (Homo sapiens (Human), UniProt O60674). Put plainly: JAK2 enzyme assay (Caliper LabChip, Ki). Type of experiment: biochemical. Put shortly: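 Caliper LabChip readout of phosphorylated product as a fraction of total substrate, a fluorescently N-terminally labelled JAK3-derived peptide. Isolated human JAK kinase domains were incubated 30 min at 22 °C before EDTA quench (50 mM final).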

isolated recombinant JAK1 kinase domain, sequence (P23458 875-1153): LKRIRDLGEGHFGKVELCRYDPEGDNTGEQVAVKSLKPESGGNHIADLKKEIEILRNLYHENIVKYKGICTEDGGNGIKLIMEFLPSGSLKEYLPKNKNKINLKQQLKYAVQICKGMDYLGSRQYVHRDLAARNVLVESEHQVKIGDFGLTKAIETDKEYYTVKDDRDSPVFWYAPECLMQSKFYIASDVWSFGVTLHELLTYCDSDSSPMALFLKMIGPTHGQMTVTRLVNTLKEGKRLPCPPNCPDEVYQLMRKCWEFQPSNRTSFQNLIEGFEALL
isolated recombinant JAK2 kinase domain, sequence (O60674 849-1124): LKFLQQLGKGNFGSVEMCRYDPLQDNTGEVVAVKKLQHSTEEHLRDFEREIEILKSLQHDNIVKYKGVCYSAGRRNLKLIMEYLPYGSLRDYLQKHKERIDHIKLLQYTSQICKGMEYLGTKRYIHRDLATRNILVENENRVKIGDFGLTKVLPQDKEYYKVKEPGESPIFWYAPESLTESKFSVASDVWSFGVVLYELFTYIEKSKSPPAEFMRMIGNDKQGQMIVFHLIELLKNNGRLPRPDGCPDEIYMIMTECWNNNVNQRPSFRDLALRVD

With `Cc1ccc(OC2(C)CN([C@H]3CC[C@](CC#N)(n4cc(C(N)=O)c(NC(=O)C5CC5)n4)CC3)C2)cc1` [Example 300, 1-[1-(cyanomethyl)-4-[3-methyl-3-(4-methylphenoxy)azetidin-1-yl]cyclohexyl]-3-(cyclopropanecarbonylamino) pyrazole-4-carboxamide], the Ki was 1.5 nM in experiment [1] and 1.3 nM in experiment [3]. For the same compound, the half-maximal inhibitory concentration (IC50) in experiment [2] is 43 nM.

On to `CCC1(n2cc(C(N)=O)c(Nc3ccc(S(=O)(=O)C(F)F)cc3)n2)CCN(Cc2cc(O)ccc2F)CC1` [Example 301, 3-((4-((Difluoromethyl)sulfonyl)phenyl)amino)-1-(4-ethyl-1-(2-fluoro-5-hydroxybenzyl)piperidin-4-yl)-1H-pyrazole-4-carboxamide], for which the results for the Ki in experiment [1] and in experiment [3] were 1.5 nM and 2 nM, respectively. Moreover, the IC50 in experiment [2] is 100 nM.

On to `CC[C@]1(n2cc(C(N)=O)c(Nc3ccc(S(C)(=O)=O)cc3)n2)CC[C@H](N2CC(C(F)(F)F)C2)CC1` [Example 302, 1-((1S,4S)-1-ethyl-4-(3-(trifluoromethyl)azetidin-1-yl)cyclohexyl)-3-((4-(methylsulfonyl)phenyl)amino)-1H-pyrazole-4-carboxamide], for which the Ki in experiment [1] was 0.94 nM; in experiment [3] it was 2 nM. Moreover, in experiment [2], the IC50 is 43 nM.

Take `CCOP(=O)(OCC)c1ccc(Nc2nn([C@]3(CC#N)CC[C@@H](N4CC(C(F)(F)F)C4)CC3)cc2C(N)=O)cc1` [Example 303, Diethyl (4-((4-carbamoyl-1-((1R,4R)-1-(cyanomethyl)-4-(3-(trifluoromethyl)azetidin-1-yl)cyclohexyl)-1H-pyrazol-3-yl)amino)phenyl)phosphonate]: the Ki was 0.39 nM in experiment [1] and 0.66 nM in experiment [3]. Moreover, the IC50 in experiment [2] came out at 34 nM.

Regarding `CCC1(n2cc(C(N)=O)c(Nc3ccc(S(=O)(=O)C(F)F)cc3)n2)CCN(C(=O)CC#N)CC1` [Example 304], the results for the inhibitory constant (Ki) in experiment [1] and in experiment [3] were 0.49 nM and 2.8 nM, respectively. Besides, the half-maximal inhibitory concentration (IC50) in experiment [2] was determined as 220 nM.

One may read the Ki as the equilibrium dissociation constant of an inhibitor or competing ligand from its target. Usually IC50 stands for the concentration that inhibits the measured activity by half.

Values taken from patent US11731943B2, “Therapeutic compounds, compositions and methods of use thereof” (priority 2016, dated 2023).
